# Reference: US7070811B2, “Directly compressible formulations of azithromycin” (Pfizer Inc., priority 2001, dated 2006)
# Experiments:
# [1] = Indices of Tableting Performance (Hiestand and Smith); assay type: physicochemical; settings: bulk azithromycin; for Brittle Fracture Index (BFI): Lots 1, 2 and 4 milled (Fitzmill, 0.027" screen, knives, high speed) for this test; for Strain Index (SI) / Tensile Strength / Worst Case Bonding Index (BLw) × 10^2: Lots 1, 2 and 4 milled for this test
# Protocol: Indices of tableting performance, for several azithromycin forms, were assessed to identify any mechanical deficiencies or attributes that may affect the ability to develop a direct compression tablet formulation of azithromycin. This assessment was performed in accordance with the procedures described in “Indices of Tableting Performance” H. E. N. Hiestand and D. P. Smith, Powder Technology 38 [1984] pp. 145–159.
# More specifically, the Brittle Fracture Index, BFI, was calculated from the ratio of a material's regular tensile strength to its compromised tensile strength. Strain Index, SI, was determined from the dynamic indentation hardness test. Worst Case Bonding Index was determined by assessing the extent of particle bonding remaining after decompression assuming a very short compression dwell time and a plastic mechanism of particle separation during decompression.
# Bulk azithromycin lots 1, 2, 4, 7, 10 and 11 are different crystalline forms, respectively, forms N, M, G, A, F and J. Lots 1, 2 and 4 were milled with a Fitzmill (Model JT, The Fitzpatrick Co., Elmhurst, Ill.) using a 0.027″ screen and knives at high speed in an attempt to match the smaller particle size of Lot 7. Lots 10 and 11 were evaluated as is due to their relatively small particle sizes.
# [2] = Carr's Compressibility Index from initial and tapped density; assay type: physicochemical; settings: for Carr's Index: blend with ˜60% drug loading
# Protocol: Carr's Compressibility Index is a simple test to evaluate flowability by comparing both the initial and final (tapped) densities and the rate of packing down. A useful empirical guide to flow is given by Carr's compressibility index: Compressibility Index(%)=[(tapped density−initial density)/tapped density]×100
# Carr's Compressibility Index of the azithromycin bulk was measured by taking an initial density of a 15 gram sample in a 100 ml graduated cylinder. The sample was tapped 2000 times on a VanKel Tap Density Tester (Model 50-1200, Edison, N.J.) and the tapped density of the 15 gram sample in the 100 ml graduated cylinder was taken. The procedure is described in Int. J. Pharm. Tech. & Prod. Mfr., 6(3) 10–16, 1985.
# The ingredients were weighed (except for the magnesium stearate), combined and blended in a low shear blender for 30 minutes. The blend was passed through a U.S. standard No. 20 or No. 25 mesh screen to delump the blend. The screened blend was returned to the blender and blended for an additional 30 minutes. Prior to the addition of the magnesium stearate, the initial and tapped densities of the blend were determined from which a Carr's Compressibility Index for flow was calculated for the blend. Magnesium stearate was then added to the blend, after which it was blended for an additional five minutes.
smiles,measurement,setting,value
"CC[C@H]1OC(=O)[C@H](C)[C@@H](O[C@H]2C[C@@](C)(OC)[C@@H](O)[C@H](C)O2)[C@H](C)[C@@H](O[C@@H]2O[C@H](C)C[C@H](N(C)C)[C@H]2O)[C@](C)(O)C[C@@H](C)CN(C)[C@H](C)[C@@H](O)[C@]1(C)O [Lot 7, azithromycin]",Brittle Fracture Index (BFI),[1]; listed as #7 Form A,0.10
same,Strain Index (SI),[1]; listed as #7 Form A,0.0044
same,Tensile Strength,[1]; listed as #7 Form A,0.99 Mpa
same,Worst Case Bonding Index (BLw) × 10^2,[1]; listed as #7 Form A,0.9
"CC[C@H]1OC(=O)[C@H](C)[C@@H](O[C@H]2C[C@@](C)(OC)[C@@H](O)[C@H](C)O2)[C@H](C)[C@@H](O[C@@H]2O[C@H](C)C[C@H](N(C)C)[C@H]2O)[C@](C)(O)C[C@@H](C)CN(C)[C@H](C)[C@@H](O)[C@]1(C)O [Lot 1, azithromycin]",Brittle Fracture Index (BFI),[1]; listed as #1 Form N,0.05
same,Strain Index (SI),[1]; listed as #1 Form N,0.0044
same,Tensile Strength,[1]; listed as #1 Form N,0.75 Mpa
same,Worst Case Bonding Index (BLw) × 10^2,[1]; listed as #1 Form N,0.7
"CC[C@H]1OC(=O)[C@H](C)[C@@H](O[C@H]2C[C@@](C)(OC)[C@@H](O)[C@H](C)O2)[C@H](C)[C@@H](O[C@@H]2O[C@H](C)C[C@H](N(C)C)[C@H]2O)[C@](C)(O)C[C@@H](C)CN(C)[C@H](C)[C@@H](O)[C@]1(C)O [Lot 11, azithromycin]",Brittle Fracture Index (BFI),[1]; listed as #11 Form J,0.11
same,Strain Index (SI),[1]; listed as #11 Form J,0.0043
same,Tensile Strength,[1]; listed as #11 Form J,0.69 Mpa
same,Worst Case Bonding Index (BLw) × 10^2,[1]; listed as #11 Form J,0.7
"CC[C@H]1OC(=O)[C@H](C)[C@@H](O[C@H]2C[C@@](C)(OC)[C@@H](O)[C@H](C)O2)[C@H](C)[C@@H](O[C@@H]2O[C@H](C)C[C@H](N(C)C)[C@H]2O)[C@](C)(O)C[C@@H](C)CN(C)[C@H](C)[C@@H](O)[C@]1(C)O [Lot 6, azithromycin]",Carr's Compressibility Index,[2]; blend of 59.3 wt % azithromycin without glidant,30
"CC[C@H]1OC(=O)[C@H](C)[C@@H](O[C@H]2C[C@@](C)(OC)[C@@H](O)[C@H](C)O2)[C@H](C)[C@@H](O[C@@H]2O[C@H](C)C[C@H](N(C)C)[C@H]2O)[C@](C)(O)C[C@@H](C)CN(C)[C@H](C)[C@@H](O)[C@]1(C)O [Lot 10, azithromycin]",Carr's Index,[2],34
same,Brittle Fracture Index (BFI),[1]; listed as #10 Form F,0.37
same,Strain Index (SI),[1]; listed as #10 Form F,0.0041
same,Tensile Strength,[1]; listed as #10 Form F,1.62 Mpa
same,Worst Case Bonding Index (BLw) × 10^2,[1]; listed as #10 Form F,0.9
"CC[C@H]1OC(=O)[C@H](C)[C@@H](O[C@H]2C[C@@](C)(OC)[C@@H](O)[C@H](C)O2)[C@H](C)[C@@H](O[C@@H]2O[C@H](C)C[C@H](N(C)C)[C@H]2O)[C@](C)(O)C[C@@H](C)CN(C)[C@H](C)[C@@H](O)[C@]1(C)O [Lot 2, azithromycin]",Brittle Fracture Index (BFI),[1]; listed as #2 Form M,0.10
same,Strain Index (SI),[1]; listed as #2 Form M,0.0048
same,Tensile Strength,[1]; listed as #2 Form M,0.79 Mpa
same,Worst Case Bonding Index (BLw) × 10^2,[1]; listed as #2 Form M,1.0
"CC[C@H]1OC(=O)[C@H](C)[C@@H](O[C@H]2C[C@@](C)(OC)[C@@H](O)[C@H](C)O2)[C@H](C)[C@@H](O[C@@H]2O[C@H](C)C[C@H](N(C)C)[C@H]2O)[C@](C)(O)C[C@@H](C)CN(C)[C@H](C)[C@@H](O)[C@]1(C)O [Lot 8, azithromycin]",Carr's Index,[2],37
"CC[C@H]1OC(=O)[C@H](C)[C@@H](O[C@H]2C[C@@](C)(OC)[C@@H](O)[C@H](C)O2)[C@H](C)[C@@H](O[C@@H]2O[C@H](C)C[C@H](N(C)C)[C@H]2O)[C@](C)(O)C[C@@H](C)CN(C)[C@H](C)[C@@H](O)[C@]1(C)O [Lot 4, azithromycin]",Strain Index (SI),[1]; listed as #4 Form G,0.0043
same,Tensile Strength,[1]; listed as #4 Form G,1.03 Mpa
same,Worst Case Bonding Index (BLw) × 10^2,[1]; listed as #4 Form G,0.8
